Data: patent publication US8685655B2, “Dissociation method and dissociation agent for avidin and biotin derivatives” (JSR Corporation, priority 2009, dated 2014)

Assays:
[1] = biological target: T1, streptavidin magnetic particles-desthiobiotin-bound probe molecules-target substance complex (Streptomyces avidinii, UniProt P22629); test: Dissociation efficiency: target cells released from the capturing carrier by the dissociation agent (quantitative PCR cell count); settings: 250 μL dissociation agent liquid in PBS, room temperature, 20 minutes; HT-29 cells isolated / cells bound x 100
T1 construct: purchased Invitrogen Dynabeads M-280 Streptavidin
Method: The number of cells was determined by measuring the quantity of genome DNA according to the quantitative PCR method.
(1) Measurement of the Number of Cells Bound to the Capturing Carrier:
50 μL of 0.8 mg/mL solution of proteinase K (protease, manufactured by Qiagen N.V.) dissolved in 10-mM Tris-HCl buffer solution (pH: 8.3) was added to the total amount of the combination of the capturing carrier and the target cells yielded in the below Examples and Comparative Example, and the resultant was reacted by heating at 55° C. for 15 minutes to elute DNA. Subsequently, this solution was heated at 95° C. for 20 minutes to inactivate proteinase K. 20 μL of the resultant DNA solution was added to 30 μL of a quantitative PCR cocktail (Fast Start Taq, manufactured by Roche (Co.)) to carry out quantitative PCR. Other DNA solutions prepared by the same method using predetermined number of cells were used to prepare a calibration curve. A 7500 Real-Time PCR System, manufactured by Applied Biosystems (Co.), was used for the quantitative PCR.
(2) Measurement of the Number of Cells Isolated from the Capturing Carrier: […]
The efficiency of dissociation of (strept) avidin from the biotin derivative was determined according to the following equation: Efficiency of Dissociation (%)=“the number of the cells isolated from the capturing carrier”/“the number of the cells bound to the capturing carrier”×100
1 mg aliquots of the capturing carrier yielded in Preparation Example 2 were added into test tubes. […] The number of the cells bound to the isolated capturing carrier was measured, and the number was 8,500, which was 85% of the number of the cells used for the Example. […]

avidin = avidin (Gallus gallus, UniProt P02701); settings: cited from earlier work
Chain of avidin (P02701 25-152, species assumed): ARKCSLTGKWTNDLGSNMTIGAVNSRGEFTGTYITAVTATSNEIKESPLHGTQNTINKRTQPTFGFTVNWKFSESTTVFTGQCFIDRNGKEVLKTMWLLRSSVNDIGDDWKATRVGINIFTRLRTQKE

T1 sequence (P22629 25-183, one chain of several): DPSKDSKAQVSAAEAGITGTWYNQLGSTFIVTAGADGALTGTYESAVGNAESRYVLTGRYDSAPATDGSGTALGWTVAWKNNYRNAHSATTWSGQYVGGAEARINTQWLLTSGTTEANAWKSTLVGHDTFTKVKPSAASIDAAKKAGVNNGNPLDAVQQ

| Compound | Dissociation efficiency (%) [1] [%] | binding constant with avidin (avidin) |
| --- | --- | --- |
| O=C(O)CCCC[C@@H]1SC[C@@H]2NC(=O)N[C@@H]21 [Biotin, biotin] | 3 | 10^15 M |
| BSA-Biotin6: dissociation agent in which six (6) in average of biotin were bound to one molecule of BSA | 70 | – |
| BSA-Biotin10: dissociation agent in which ten (10) in average of biotin were bound to one molecule of BSA | 96 | – |
